Values of other authors as cited in patent publication US20260345571A1, “DELAMANID-CONTAINING SOLID DISPERSION” (priority 2022, published 2026).

Legend:
atypical mycobacteria = details: PTL 1
[1] = tested on: Mycobacterium tuberculosis; details: PTL 1
[2] = melting point about 195 °C (decomposition)

C[C@]1(COc2ccc(N3CCC(Oc4ccc(OC(F)(F)F)cc4)CC3)cc2)Cn2cc([N+](=O)[O-])nc2O1 [Delamanid, (2R)-2-methyl-6-nitro-2-[(4-{4-[4-(trifluoromethoxy)phenoxy]piperidin-1-yl}phenoxy)methyl]-2,3-dihydroimidazo[2,1-b]oxazole]
Bactericidal action against atypical mycobacteria (atypical mycobacteria): excellent bactericidal action
Bactericidal action against Mycobacterium tuberculosis [1]: excellent bactericidal action
Thermal stability [2]: poor thermal stability
